Measured values reported in patent US20240199605A1, “SMALL MOLECULAR INHIBITORS OF NF-kB INDUCING KINASE” (Janssen Pharmaceutica NV, priority 2019, published 2024).

Legend:
[1] = target: recombinant human NF-kappaB-inducing kinase (NIK/MAP3K14) (Homo sapiens (Human), UniProt Q99558); experiment: Inhibition of auto-phosphorylation of recombinant human NIK/MAP3K14 (AlphaScreen); type: biochemical; conditions: NIK auto-phosphorylation, 5 μM ATP, 1 nM NIK, 2 h at 25° C.; average of values
Procedure, shortened: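 AlphaScreen read-out (anti-phospho-IKK Ser176/180 antibody, Protein A acceptor and glutathione donor beads) of NIK auto-phosphorylation. Reaction: 1 nM enzyme, 5 μM ATP, Tris pH 7.5 buffer with Mg2+ and vanadate, 2 h at 25° C., final DMSO 0.7%. IC50 came from a sigmoidal curve fit.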

[2] = tested on: p-IKKα levels in L363 (NIK translocated multiple myeloma) cells; experiment: Effect of compounds on p-IKKα levels in L363 cells (AlphaLISA SureFire Ultra); type: cell-based, human; conditions: Homo sapiens, L-363, 6 h, BAFF stimulated, MG132, 6 h, average of values, read-out: Assay 2 IC50
Procedure, shortened: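 Inhibition of p-IKKα (Ser176/180) read by AlphaLISA after 6 h, 37 °C compound exposure (11-point 1:3 series, 0.3% DMSO) of L363 cells pre-incubated overnight ± 250 ng/ml BAFF and plated ± BAFF ± 10 μM MG132. Normalised to BAFF/MG132/DMSO and unstimulated controls; IC50 by sigmoidal fitting, duplicates.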

Sequence of recombinant human NF-kappaB-inducing kinase (NIK/MAP3K14) (Q99558 whole entry): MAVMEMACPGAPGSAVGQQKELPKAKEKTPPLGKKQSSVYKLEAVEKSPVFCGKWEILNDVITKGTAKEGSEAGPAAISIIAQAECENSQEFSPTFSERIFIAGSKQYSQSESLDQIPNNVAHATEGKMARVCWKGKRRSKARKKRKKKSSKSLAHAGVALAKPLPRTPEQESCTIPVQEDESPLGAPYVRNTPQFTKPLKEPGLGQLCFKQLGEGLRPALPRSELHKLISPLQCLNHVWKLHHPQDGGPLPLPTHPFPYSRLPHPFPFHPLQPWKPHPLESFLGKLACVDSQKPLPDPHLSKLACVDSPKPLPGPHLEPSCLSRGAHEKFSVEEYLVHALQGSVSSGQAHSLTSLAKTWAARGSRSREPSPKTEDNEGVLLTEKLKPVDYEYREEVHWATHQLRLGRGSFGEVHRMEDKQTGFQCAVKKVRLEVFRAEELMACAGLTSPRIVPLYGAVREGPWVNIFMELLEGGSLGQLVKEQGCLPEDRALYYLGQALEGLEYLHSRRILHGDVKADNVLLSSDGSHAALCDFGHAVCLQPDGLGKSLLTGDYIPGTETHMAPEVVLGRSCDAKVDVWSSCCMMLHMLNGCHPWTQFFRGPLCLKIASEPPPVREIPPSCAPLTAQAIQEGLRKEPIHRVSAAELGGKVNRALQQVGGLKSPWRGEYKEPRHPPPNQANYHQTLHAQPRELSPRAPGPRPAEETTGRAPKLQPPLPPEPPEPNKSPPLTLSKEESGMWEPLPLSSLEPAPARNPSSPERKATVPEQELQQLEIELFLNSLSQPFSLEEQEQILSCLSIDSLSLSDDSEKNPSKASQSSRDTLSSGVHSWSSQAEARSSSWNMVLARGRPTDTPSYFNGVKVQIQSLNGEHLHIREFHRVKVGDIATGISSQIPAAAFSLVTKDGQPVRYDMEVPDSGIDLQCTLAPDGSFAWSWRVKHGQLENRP

| Compound | IC50 [1] | IC50 [2] |
| --- | --- | --- |
| COc1ccc(C#C[C@]2(O)CCN(C)C2=O)cc1-c1nc2c(N)ncnc2s1 [Example 194, (R)-3-((3-(7-Aminothiazolo[5,4-d]pyrimidin-2-yl)-4-methoxyphenyl)ethynyl)-3-hydroxy-1-methylpyrrolidin-2-one] | 1 nM | 8.3 nM |
| CCOc1ncnc2ccc(-c3cccc(C#C[C@]4(O)CCN(C)C4=O)c3)nc12 [Example 24, (R)-3-((3-(4-Ethoxypyrido[3,2-d]pyrimidin-6-yl)phenyl)ethynyl)-3-hydroxy-1-methylpyrrolidin-2-one] | 260 nM | 4030 nM |
| CN1CC[C@@](O)(C#Cc2cccc(-c3cc(Cl)c4ncnc(N)c4c3)c2)C1=O [Example 117, (R)-3-((3-(4-Amino-8-chloroquinazolin-6-yl)phenyl)ethynyl)-3-hydroxy-1-methylpyrrolidin-2-one] | ≤ 0.5 nM | 33 nM |
| CNc1ncnc2ccc(-c3cccc(C#C[C@]4(O)CCN(C)C4=O)c3)nc12 [Example 27, (R)-3-Hydroxy-1-methyl-3-((3-(4-(methylamino)pyrido[3,2-d]pyrimidin-6-yl)phenyl)ethynyl)pyrrolidin-2-one] | 7.8 nM | 240 nM |
| CN1CC[C@@](O)(C#Cc2cccc(-n3cc4c(N)ncnc4n3)c2)C1=O [Example 179, (R)-3-((3-(4-Amino-2H-pyrazolo[3,4-d]pyrimidin-2-yl)phenyl)ethynyl)-3-hydroxy-1-methylpyrrolidin-2-one] | 1170 nM | > 5000 nM |
| Cc1csc([C@](C)(O)C#Cc2cccc(-c3ccc4nc(C)nc(N)c4n3)c2)n1 [Example 180, (R)-4-(3-(4-Amino-2-methylpyrido[3,2-d]pyrimidin-6-yl)phenyl)-2-(4-methylthiazol-2-yl)but-3-yn-2-ol] | 410 nM | > 5000 nM |
| CN1CC[C@@](O)(C#Cc2cccc(-c3ccc4nc(O)nc(N)c4n3)c2)C1=O [Example 211, (R)-3-((3-(4-Amino-2-hydroxypyrido[3,2-d]pyrimidin-6-yl)phenyl)ethynyl)-3-hydroxy-1-methylpyrrolidin-2-one] | 2.2 nM | > 5000 nM |
| Cc1nc(N)c2nc(-c3cccc(C#C[C@](C)(O)c4ncc(C)s4)c3)ccc2n1 [Example 166, (S)-4-(3-(4-Amino-2-methylpyrido[3,2-d]pyrimidin-6-yl)phenyl)-2-(5-methylthiazol-2-yl)but-3-yn-2-ol] | 4700 nM | > 5000 nM |
| CN1CC[C@@](O)(C#Cc2cccc(-c3ccc4ncnc(NCC(F)F)c4n3)c2)C1=O [Example 241, (R)-3-((3-(4-((2,2-Difluoroethyl)amino)pyrido[3,2-d]pyrimidin-6-yl)phenyl)ethynyl)-3-hydroxy-1-methylpyrrolidin-2-one] | 56 nM | 930 nM |
| CN1CC[C@@](O)(C#Cc2cccc(-c3cc(OC(F)F)c4ncnc(N)c4n3)c2)C1=O [Example 299, (R)-3-[2-[3-[4-Amino-8-(difluoromethoxy)pyrido[3,2-d]pyrimidin-6-yl]phenyl]ethynyl]-3-hydroxy-1-methyl-pyrrolidin-2-one] | 1.7 nM | 12 nM |
| Cc1cc([C@](C)(O)C#Cc2cccc(-c3ncc4ccnc(N)c4n3)c2)no1 [Example 34, (R)-4-[3-(8-Aminopyrido[3,4-d]pyrimidin-2-yl)phenyl]-2-(5-methylisoxazol-3-yl)but-3-yn-2-ol] | ≤ 0.5 nM | 52 nM |
| Cc1cc2cnc(-c3cccc(C#C[C@]4(O)CCc5cccnc54)c3)nc2c(N)n1 [Example 63, (R)-7-((3-(8-amino-6-methylpyrido[3,4-d]pyrimidin-2-yl)phenyl)ethynyl)-6,7-dihydro-5H-cyclopenta[b]pyridin-7-ol] | 1.4 nM | 140 nM |
| CNC(=O)C1CN(c2ncnc3ccc(-c4cccc(C#C[C@]5(O)CCN(C)C5=O)c4)nc23)C1 [Example 246, (R)-1-(6-(3-((3-Hydroxy-1-methyl-2-oxopyrrolidin-3-yl)ethynyl)phenyl)pyrido[3,2-d]pyrimidin-4-yl)-N-methylazetidine-3-carboxamide] | 23 nM | 3790 nM |
| Cc1cnc(C)c2nc(-c3cccc(C#C[C@]4(O)CCN(C)C4=O)c3)ccc12 [Example 252, (R)-3-((3-(5,8-Dimethyl-1,7-naphthyridin-2-yl)phenyl)ethynyl)-3-hydroxy-1-methylpyrrolidin-2-one] | 31 nM | > 2000 nM |
| CN1CC[C@@](O)(C#Cc2cccc(-c3ccc4c(CN5CCCC5)cnc(N)c4n3)c2)C1=O [Example 171, (R)-3-[2-[3-[8-Amino-5-(pyrrolidin-1-ylmethyl)-1,7-naphthyridin-2-yl]phenyl]ethynyl]-3-hydroxy-1-methyl-pyrrolidin-2-one] | 4 nM | 180 nM |
| Cc1nc(N)c2nc(-c3cc(C#C[C@]4(O)CCN(C)C4=O)ccc3C)sc2n1 [Example 182, (R)-3-[2-[3-(7-Amino-5-methyl-thiazolo[5,4-d]pyrimidin-2-yl)-4-methyl-phenyl]ethynyl]-3-hydroxy-1-methyl-pyrrolidin-2-one] | 1.2 nM | 74 nM |
| Cc1nc(-c2cccc(C#C[C@]3(O)CCn4ccnc43)c2)nc2c(N)nccc12 [Example 84, (R)-7-((3-(8-Amino-4-methylpyrido[3,4-d]pyrimidin-2-yl)phenyl)ethynyl)-6,7-dihydro-5H-pyrrolo[1,2-a]imidazol-7-ol] | ≤ 0.5 nM | 5.5 nM |
| CN1CC[C@@](O)(C#Cc2cccc(-c3ncc4c(-c5cnn(CC(C)(C)O)c5)cnc(N)c4n3)c2)C1=O [Example 123, (R)-3-[2-[3-[8-Amino-5-[1-(2-hydroxy-2-methyl-propyl)pyrazol-4-yl]pyrido[3,4-d]pyrimidin-2-yl]phenyl]ethynyl]-3-hydroxy-1-methyl-pyrrolidin-2-one] | ≤ 0.5 nM | 4 nM |
| Cc1nc(N)c2nc(-c3cccc(C#C[C@]4(O)C(=O)N(C)[C@H]5C[C@H]54)c3)ccc2n1 [Example 274, (1S,4S,5R)-4-((3-(4-Amino-2-methylpyrido[3,2-d]pyrimidin-6-yl)phenyl)ethynyl)-4-hydroxy-2-methyl-2-azabicyclo[3.1.0]hexan-3-one] | 1930 nM | > 5000 nM |
| CN1CC[C@@](O)(C#Cc2cccc(-c3ncc4c(C(F)(F)F)cnc(N)c4n3)c2)C1=O [Example 99, (R)-3-[2-[3-[8-Amino-5-(trifluoromethyl)pyrido[3,4-d]pyrimidin-2-yl]phenyl]ethynyl]-3-hydroxy-1-methyl-pyrrolidin-2-one] | ≤ 0.5 nM | 12 nM |
| C[C@@](O)(C#Cc1cccc(-c2ncc3ncnc(N)c3n2)c1)c1nccs1 [Example 137, (R)-4-(3-(8-Aminopyrimido[5,4-d]pyrimidin-2-yl)phenyl)-2-(thiazol-2-yl)but-3-yn-2-ol] | ≤ 0.5 nM | 9.3 nM |
| CN1CC[C@@](O)(C#Cc2cccc(-c3cc(N4CCC4)c4ncnc(N)c4n3)c2)C1=O [Example 316, (R)-3-[2-[3-[4-Amino-8-(azetidin-1-yl)pyrido[3,2-d]pyrimidin-6-yl]phenyl]ethynyl]-3-hydroxy-1-methyl-pyrrolidin-2-one] | 0.9 nM | 9.5 nM |
| CN1CC[C@@](O)(C#Cc2cccc(-c3nc(N4CCOCC4)c4ccnc(N)c4n3)c2)C1=O [Example 57, (R)-3-((3-(8-Amino-4-morpholinopyrido[3,4-d]pyrimidin-2-yl)phenyl)ethynyl)-3-hydroxy-1-methylpyrrolidin-2-one] | 1.3 nM | 35 nM |
